Measurements taken from patent US20240400515A1, “NPM1-DEPENDING LEUKEMIA AGENTS” (UNIVERSIDAD COMPLUTENSE DE MADRID, priority 2021, published 2024).
Entries after “also recorded” stand apart in the source; their conditions may differ.

What was measured:
[1] = Pharmacokinetic study in mice; type: in vivo, mouse; set-up: in-vivo diffusion: dose or concentration left out as unconfirmed; conditions: FIG. 5A
Description: Pharmacokinetic studies for compound Ic were performed. […] The area of the molecular peak allows to calculate the concentration of the compound present in mice serum at each time.

AML primary cells = experiment: Colony formation unit assay in primary CD34+ cells from AML patients; type: cell-based; conditions: Homo sapiens, 336 h; methylcellulose culture, 14 days, FIG. 3; read-out: CFU-E: IC50 AML
Description: (§1) Sorted CD34^+ cells were plated in 24-well plates at a density of 3×10^4 cells per well in methylcellulose-based medium MethoCult GF H4434 (StemCell Technologies) containing stem cell factor (SCF), interleukin-3 (IL-3), erythropoietin (EPO) and granulocyte macrophage colony stimulating factor (GM-CSF). Test compound was added directly to the cells within the methylcellulose medium, and incubated at 37° C. in a humidified atmosphere in the presence of 5% CO2 for 14 days. Total cells from colonies formed were counted manually using an inverted microscope/phase contrast microscopy with trypan-blue. The data were presented as percentage of colonies or percentage of viable cells relative to DMSO, obtained from two or three independent experiments performed in duplicate.

OCI-AML3 (NPM1 C+) [2] = experiment: Viability assay (WST-1) in OCI-AML3 cell line; type: cell-based; conditions: Homo sapiens, OCI-AML-3, viability percentage relative to vehicle, 24 h
Description: (§2) Two different acute myeloid leukemia cell lines, OCI-AML3 (NPM1 C+) and MOLM13 (NPM1 C−) were obtained from the DSMZ cell repository (Braunschweig, Germany). Cell lines were expanded and cryogenically frozen upon acquisition to establish stocks in liquid nitrogen until use. Cultured cells were maintained at 37° C. in a humidified incubator in an atmosphere of 5% CO2 and passaged every 2-3 days. RPMI media (Gibco/Life Technologies; Grand Island, NY) supplemented with 10% fetal bovine serum (FBS) (Hyclone) and 1% penicillin/streptomycin was used.
(§3) The sensitivity of the compounds on OCI-AML3 (NPM1 C+) and MOLM13 (NPM1 C−) cell viability was assessed as an in-vitro acute myeloid leukemia (AML) model. Briefly, cells were seeded at a density of 2×10^4 cells/100 μL/well in 96-well plates. Cell lines were treated for 24 h with the test compound diluted in DMSO at the concentration of 5 μM or vehicle (DMSO). Then, 10 μL of WST-1 solution ((2-(4-iodophenyl)-3-(4-nitrophenyl)-5-(2,4-disulfophenyl)-2H-tetrazolium monosodium salt, Merck) were added and the cells were incubated for 4 h at 37° C. The absorbance was measured at 450 nm using an Asys UVM 340 microplate reader (Biochrom Ltd., Cambridge, UK). The background absorbance of blank wells containing only medium was subtracted from each test well. The data were reported as viability percentage relative to vehicle, obtained from two or three independent experiments performed in triplicate (Table 1).

MOLM13 (NPM1 C−) [3] = experiment: Viability assay (WST-1) in MOLM13 cell line; type: cell-based; conditions: Homo sapiens, MOLM-13; dose-response curve, FIG. 1
OCI-AML3-ffLuc-GFP cells = experiment: AML xenograft mouse model (OCI-AML3-ffLuc-GFP cells in NSG mice); type: in vivo; conditions: ip administration for 3 weeks, NSG mice with 1 million OCI-AML3-GFP-Luc cells, versus vehicle, FIG. 5B
Description: An AML xenograft mouse model was used for the study of in vivo efficacy. Female 6-8 week-old NOD.Cg-Prkdcscid II2rgtm1WjI/SzJ (NSG) mice (Vivotecnia, Madrid, Spain) were inoculated intravenously by tail vein injection with OCI-AML3-ffLuc-GFP cells (1×10^6). The animal experiment was performed according to the guidelines of the Institutional Animal Care and Use Committees of the Comunidad de Madrid, Spain, under approved protocol (PROEX 023/17). Four days later, mice were randomized into three groups of 10 animals: the first group received intraperitoneal injections of vehicle (0.9% saline solution) five days a week; the second group received 25 mg/kg of compound Ic intraperitoneally five times a week for four weeks; the third group received intraperitoneal injections of 50 mg/kg of compound Ic five times weekly for three weeks. Mice were monitored for tumor burden, distribution and engraftment every week by IVIS whole-body bioluminescence imaging. Bioimaging of […] burden in vivo was performed by IVIS Imaging system (Caliper Life Science). Before performing, Luciferin (D-luciferin monosodium salt, Thermofisher) was prepared in PBS and 150 mg/kg of Luciferin was injected i.p.; after 10 min, luminescence signal can be detected. The signal data was analyzed by the Living Image 4.2 (Caliper Life Science) software.

[4] = tested on: AML primary cells NPM1 WT; experiment: Viability assay in primary CD34+ cells from AML patients, NPM1 WT; type: cell-based; conditions: Homo sapiens, FIG. 2
Description: as §3
(§4) Primary cells from AML bone marrow patients CD34+ were isolated by anti-CD34+ microbeads (Miltenyi Biotech) from bone marrow of healthy donors and AML patients. Briefly, bone marrow samples were collected from AML and healthy patient pelvic bone, and were subjected to Ficoll-Paque density gradient separation to isolate mononuclear cells. […]

[5] = target: T1, NPM1 cytoplasmic form (NPM1 C+) (Homo sapiens, UniProt P06748); experiment: Effect on NPM1 cytoplasmic form (NPM1 C+) by confocal microscopy in OCI-AML3; type: cell-based; conditions: OCI-AML3, 10 µM, 48 h, FIG. 4
T1 construct: endogenous in cells; host or cells: OCI-AML3 (DSMZ)
Description: OCI-AML3 (NPM1 C+) cells were plated onto glass coverslips or Greiner Bio-One μClear black 96-well plate (7.5×10^4 cells per well) and treated with test compound for 48 h. Then, cells were fixed with 4% paraformaldehyde for 15 min, permeabilized with 0.1% Triton X-100 for 30 min, and blocked in 5% bovine serum albumin during 1 h at rt. Incubation with primary antibodies against NPM1 (7H10B9, NOVUS Biologicals) was carried out overnight at 4° C. Alexa-488 conjugated anti-mouse or anti-rabbit antibodies (Molecular Probes) were used for detection of the reported proteins by confocal microscopy. Nuclei were counterstained with 4′,6-diamidino-2-phenylindole (DAPI) bath. A total of 35 fields per well were acquired with a ×40 magnification lens for those samples run in the Opera HCS system (Perkin Elmer). Images were segmented using the DAPI staining and the coefficient of variation of NPM1 intensity per nucleus/cytoplasm was calculated using Definiens Developer XD software.

[6] = tested on: AML primary cells NPM1 mut; experiment: Viability assay in primary CD34+ cells from AML patients, NPM1 mut; type: cell-based; conditions: Homo sapiens, FIG. 2
Description: as §3, §4

OCI-AML3 (NPM1 C+) [7] = experiment: Viability assay (WST-1) in OCI-AML3 cell line; type: cell-based; conditions: Homo sapiens, OCI-AML-3; dose-response curve, FIG. 1
[8] = tested on: healthy donor bone marrow cells; experiment: Viability assay in CD34+ healthy donor bone marrow cells; type: cell-based; conditions: Homo sapiens, Bone marrow cell, FIG. 2, read-out: IC50 healthy donors
Description: as §3, §4

[9] = tested on: healthy donor bone marrow cells; experiment: Colony formation unit assay in CD34+ healthy donor bone marrow cells; type: cell-based; conditions: Homo sapiens, Bone marrow cell, 336 h; methylcellulose culture, 14 days, FIG. 3; read-out: CFU-E: IC50 healthy donors
Description: as §1

MOLM13 (NPM1 C−) [10] = experiment: Viability assay (WST-1) in MOLM13 cell line; type: cell-based; conditions: Homo sapiens, MOLM-13, viability percentage relative to vehicle, 24 h
Description: as §2, §3

T1 sequence (P06748 with tags, fused parts or gaps limits assumed): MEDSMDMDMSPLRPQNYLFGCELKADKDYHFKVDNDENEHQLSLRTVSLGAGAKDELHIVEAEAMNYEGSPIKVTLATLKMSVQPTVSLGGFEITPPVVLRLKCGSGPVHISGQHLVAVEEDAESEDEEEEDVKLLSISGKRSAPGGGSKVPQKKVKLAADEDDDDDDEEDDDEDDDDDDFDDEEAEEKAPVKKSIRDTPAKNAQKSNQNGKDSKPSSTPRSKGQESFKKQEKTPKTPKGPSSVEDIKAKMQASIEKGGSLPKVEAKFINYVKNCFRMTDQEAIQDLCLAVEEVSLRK

- levels in mouse peripheral blood ([1]; 25 mg/kg intraperitoneal, first 6 h post-injection): 200 to 600 ng/mL
- in-vivo diffusion ([1]; plasma concentration 30 minutes to 6 hours after ip administration): correct in-vivo diffusion was observed
- IC50 (AML primary cells): 1.26 µM
- IC50 (MOLM13 (NPM1 C−) [3]): 41.8 µM
- IC50 (OCI-AML3 (NPM1 C+) [7]): 7.59 µM
SMILES: COc1ccc([C@H]2Cc3[nH]c4ccccc4c3[C@@H](CCNCC3CC3)[C@@H]2N)cc1 [Ic, (2R,3R,4R)-4-{2-[(Cyclopropylmethyl)amino]ethyl}-2-(4-methoxyphenyl)-2,3,4,9-tetrahydro-1H-carbazol-3-amine]
- viability at 5 µM (OCI-AML3 (NPM1 C+) [2]): 40 ± 2%
- AML cell (tumour) infiltration (OCI-AML3-ffLuc-GFP cells): Tumour infiltration decrease was observed
- IC50 [4]: 5.03 µM
- Effect on NPM1 / NPM1C+ (confocal microscopy) [5]: inhibition of the NPM1 cytoplasmic form (NPM1 C+) of the protein; also recorded: deplete NPM1 in OCI-AML3, especially NPM1C+ form
- IC50 [6]: 1.24 µM
- IC50 [8]: 7.89 µM
- IC50 [9]: 4.6 µM
- viability at 5 µM (MOLM13 (NPM1 C−) [10]): 55 ± 6%
